Source: patent US20150105252A1, “SUBSTITUTED PYRAZOLES AS HERBICIDES” (E I DU PONT DE NEMOURS AND COMPANY, priority 2013, published 2015)

Key:
windgrass = assay: Test D preemergence; type: in vivo, Apera spica-venti; settings: for Plant response rating, Windgrass: Preemergence, scale 0 to 100
From the text: (§1) Seeds of plant species selected from bluegrass (annual bluegrass, Poa annua), blackgrass (Alopecurus myosuroides), canarygrass (littleseed canarygrass, Phalaris minor), chickweed (common chickweed, Stellaria media), galium (catchweed bedstraw, Galium aparine), bromegrass, downy (downy bromegrass, Bromus tectorum), field poppy (Papaver rhoeas), field violet (Viola arvensis), foxtail, green (green foxtail, Setaria viridis), deadnettle (henbit deadnettle, Lamium amplexicaule), ryegrass, Italian (Italian ryegrass, Lolium multiflorum), kochia (Kochia scoparia), lambsquarters (Chenopodium album), oilseed rape (Brassica napus), pigweed (redroot pigweed, Amaranthus retroflexus), chamomile (scentless chamomile, Matricaria inodora), speedwell (bird's-eye speedwell, Veronica persica), barley, spring (spring barley, Hordeum vulgare), wheat, spring (spring wheat, Triticum aestivum), buckwheat, wild (wild buckwheat, Polygonum convolvulus), mustard, wild (wild mustard, Sinapis arvensis), oat, wild (wild oat, Avena fatua), radish, wild (wild radish, Raphanus raphanistrum), windgrass (Apera spica-venti), Russian thistle (Salsola kali), barley, winter (winter barley, Hordeum vulgare), and wheat, winter (winter wheat, Triticum aestivum) were planted into a silt loam soil and treated preemergence with test chemicals formulated in a non-phytotoxic solvent mixture which included a surfactant.
(§2) At the same time, these species were planted in pots containing Redi-Earth® planting medium (Scotts Company, 14111 Scottslawn Road, Marysville, Ohio 43041) comprising spaghnum peat moss, vermiculite, wetting agent and starter nutrients and treated with postemergence applications of the test chemicals formulated in the same manner. Plants ranged in height from 2 to 18 cm (1- to 4-leaf stage). Treated plants and controls were maintained in a controlled growth environment for 14 to 21 days after which time all species were compared to controls and visually evaluated. Plant response ratings, summarized in Table D, are based on a scale of 0 to 100 where 0 is no effect and 100 is complete control. A dash (-) response means no test result.

bluegrass [1] = assay: Test D preemergence; type: in vivo, Poa annua; settings: for Plant response rating, Bluegrass: Preemergence, scale 0 to 100
Summary of the method: (§3)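 Pre: sown in silt loam, sprayed at once. Post: grown in peat-moss/vermiculite mix, sprayed at 1–4 leaves (2–18 cm). Formulation: non-phytotoxic solvent + surfactant. Read-out: visual 0–100 vs controls, 14–21 d.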

bluegrass [2] = assay: Test D postemergence; type: in vivo, Poa annua; settings: scale 0 to 100
From the text: as §1, §2

oilseed rape [3] = assay: Test D preemergence; type: in vivo, Brassica napus; settings: for Plant response rating, Oilseed Rape: Preemergence, scale 0 to 100
From the text: as §1, §2

blackgrass = assay: Test D postemergence; type: in vivo, Alopecurus myosuroides; settings: scale 0 to 100
From the text: as §1, §2

bromegrass, downy = assay: Test D preemergence; type: in vivo, Bromus tectorum; settings: for Plant response rating, Bromegrass, Downy: Preemergence, scale 0 to 100
From the text: as §1, §2

buckwheat, wild = assay: Test D postemergence; type: in vivo, Polygonum convolvulus; settings: scale 0 to 100
Summary of the method: as §3

wheat, winter = assay: Test D preemergence; type: in vivo, Triticum aestivum; settings: for Plant response rating, Wheat, Winter: Preemergence, scale 0 to 100
From the text: as §1, §2

wheat, spring = assay: Test D preemergence; type: in vivo, Triticum aestivum; settings: for Plant response rating, Wheat, Spring: Preemergence, scale 0 to 100
From the text: as §1, §2

radish, wild = assay: Test D postemergence; type: in vivo, Raphanus raphanistrum; settings: scale 0 to 100
From the text: as §1, §2

oilseed rape [4] = assay: Test D postemergence; type: in vivo, Brassica napus; settings: scale 0 to 100
From the text: as §1, §2

field violet = assay: Test D preemergence; type: in vivo, Viola arvensis; settings: for Plant response rating, Field Violet: Preemergence, scale 0 to 100
From the text: as §1, §2

foxtail, green = assay: Test D preemergence; type: in vivo, Setaria viridis; settings: for Plant response rating, Foxtail, Green: Preemergence, scale 0 to 100
From the text: as §1, §2

galium = assay: Test D preemergence; type: in vivo, Galium aparine; settings: for Plant response rating, Galium: Preemergence, scale 0 to 100
From the text: as §1, §2

ryegrass, Italian = assay: Test D postemergence; type: in vivo, Lolium multiflorum; settings: scale 0 to 100
Summary of the method: as §3

chickweed = assay: Test D postemergence; type: in vivo, Stellaria media; settings: scale 0 to 100
From the text: as §1, §2

canarygrass = assay: Test D postemergence; type: in vivo, Phalaris minor; settings: scale 0 to 100
From the text: as §1, §2

kochia = assay: Test D postemergence; type: in vivo, Kochia scoparia; settings: scale 0 to 100
Summary of the method: as §3

field poppy = assay: Test D preemergence; type: in vivo, Papaver rhoeas; settings: for Plant response rating, Field Poppy: Preemergence, scale 0 to 100
From the text: as §1, §2

deadnettle = assay: Test D postemergence; type: in vivo, Lamium amplexicaule; settings: scale 0 to 100
Summary of the method: as §3

[5] = 16 g ai/ha, taken as preemergence

## CCc1cc(C(=O)NOC(C)C)nn1Cc1cccc(OC(F)(F)F)c1 [Compound 70]
windgrass; [5]
  Plant response rating (scale 0 to 100), Windgrass: 0
windgrass; 31 g ai/ha
  Plant response rating, Windgrass: 0
windgrass; 62 g ai/ha
  Plant response rating, Windgrass: 0
windgrass; 125 g ai/ha
  Plant response rating, Windgrass: 0
windgrass; 250 g ai/ha
  Plant response rating, Windgrass: 0
Bluegrass [1]; [5]
  Plant response rating (scale 0 to 100), Bluegrass: 0
Bluegrass [1]; 31 g ai/ha
  Plant response rating, Bluegrass: 0
Bluegrass [1]; 62 g ai/ha
  Plant response rating, Bluegrass: 0
Bluegrass [1]; 125 g ai/ha
  Plant response rating, Bluegrass: 0
Bluegrass [1]; 250 g ai/ha
  Plant response rating, Bluegrass: 10
Bluegrass [2]; Postemergence, 16 g ai/ha
  Plant response rating, Bluegrass: 0
Bluegrass [2]; Postemergence, 31 g ai/ha
  Bluegrass plant response rating: 0
Bluegrass [2]; Postemergence, 125 g ai/ha
  Bluegrass plant response rating: 0
Bluegrass [2]; Postemergence, 250 g ai/ha
  Bluegrass plant response rating: 0
Bluegrass [2]; postemergence, 62 g ai/ha
  Bluegrass plant response rating: 0
Oilseed rape [3]; [5]
  Plant response rating (scale 0 to 100), Oilseed Rape: 0
Oilseed rape [3]; 31 g ai/ha
  Plant response rating, Oilseed Rape: 0
Oilseed rape [3]; 62 g ai/ha
  Plant response rating, Oilseed Rape: 0
Oilseed rape [3]; 125 g ai/ha
  Plant response rating, Oilseed Rape: 10
Oilseed rape [3]; 250 g ai/ha
  Plant response rating, Oilseed Rape: 40
blackgrass; Postemergence, 16 g ai/ha
  Plant response rating, Blackgrass: 0
blackgrass; Postemergence, 31 g ai/ha
  Blackgrass plant response rating: 0
blackgrass; Postemergence, 125 g ai/ha
  Blackgrass plant response rating: 0
blackgrass; Postemergence, 250 g ai/ha
  Blackgrass plant response rating: 0
blackgrass; postemergence, 62 g ai/ha
  Blackgrass plant response rating: 0
bromegrass, downy; [5]
  Plant response rating (scale 0 to 100), Bromegrass, Downy: 0
bromegrass, downy; 31 g ai/ha
  Plant response rating, Bromegrass, Downy: 0
bromegrass, downy; 62 g ai/ha
  Plant response rating, Bromegrass, Downy: 0
bromegrass, downy; 125 g ai/ha
  Plant response rating, Bromegrass, Downy: 10
bromegrass, downy; 250 g ai/ha
  Plant response rating, Bromegrass, Downy: 20
buckwheat, wild; Postemergence, 16 g ai/ha
  Plant response rating, Buckwheat, Wild: 10
buckwheat, wild; Postemergence, 31 g ai/ha
  Buckwheat, Wild plant response rating: 20
buckwheat, wild; Postemergence, 125 g ai/ha
  Buckwheat, Wild plant response rating: 20
buckwheat, wild; Postemergence, 250 g ai/ha
  Buckwheat, Wild plant response rating: 35
buckwheat, wild; postemergence, 62 g ai/ha
  Buckwheat, Wild plant response rating: 20
wheat, winter; [5]
  Plant response rating (scale 0 to 100), Wheat, Winter: 0
wheat, winter; 31 g ai/ha
  Plant response rating, Wheat, Winter: 0
wheat, winter; 62 g ai/ha
  Plant response rating, Wheat, Winter: 0
wheat, winter; 125 g ai/ha
  Plant response rating, Wheat, Winter: 0
wheat, winter; 250 g ai/ha
  Plant response rating, Wheat, Winter: 10
wheat, spring; [5]
  Plant response rating (scale 0 to 100), Wheat, Spring: 0
wheat, spring; 31 g ai/ha
  Plant response rating, Wheat, Spring: 0
wheat, spring; 62 g ai/ha
  Plant response rating, Wheat, Spring: 0
wheat, spring; 125 g ai/ha
  Plant response rating, Wheat, Spring: 10
wheat, spring; 250 g ai/ha
  Plant response rating, Wheat, Spring: 20
radish, wild; Postemergence, 16 g ai/ha
  Plant response rating, Radish, Wild: 10
radish, wild; Postemergence, 31 g ai/ha
  Radish, Wild plant response rating: 10
radish, wild; Postemergence, 125 g ai/ha
  Radish, Wild plant response rating: 50
radish, wild; Postemergence, 250 g ai/ha
  Radish, Wild plant response rating: 85
radish, wild; postemergence, 62 g ai/ha
  Radish, Wild plant response rating: 10
Oilseed rape [4]; Postemergence, 16 g ai/ha
  Plant response rating, Oilseed Rape: 20
Oilseed rape [4]; Postemergence, 31 g ai/ha
  Oilseed Rape plant response rating: 40
Oilseed rape [4]; Postemergence, 125 g ai/ha
  Oilseed Rape plant response rating: 60
Oilseed rape [4]; Postemergence, 250 g ai/ha
  Oilseed Rape plant response rating: 80
Oilseed rape [4]; postemergence, 62 g ai/ha
  Oilseed Rape plant response rating: 50
Field violet; [5]
  Plant response rating (scale 0 to 100), Field Violet: 0
Field violet; 31 g ai/ha
  Plant response rating, Field Violet: 0
Field violet; 62 g ai/ha
  Plant response rating, Field Violet: 0
Field violet; 125 g ai/ha
  Plant response rating, Field Violet: 50
Field violet; 250 g ai/ha
  Plant response rating, Field Violet: 50
foxtail, green; [5]
  Plant response rating (scale 0 to 100), Foxtail, Green: 0
foxtail, green; 31 g ai/ha
  Plant response rating, Foxtail, Green: 0
foxtail, green; 62 g ai/ha
  Plant response rating, Foxtail, Green: 0
foxtail, green; 125 g ai/ha
  Plant response rating, Foxtail, Green: 20
foxtail, green; 250 g ai/ha
  Plant response rating, Foxtail, Green: 100
galium; [5]
  Plant response rating (scale 0 to 100), Galium: 0
galium; 31 g ai/ha
  Plant response rating, Galium: 0
galium; 62 g ai/ha
  Plant response rating, Galium: 10
galium; 250 g ai/ha
  Plant response rating, Galium: 40
ryegrass, Italian; Postemergence, 16 g ai/ha
  Plant response rating, Ryegrass, Italian: 0
ryegrass, Italian; Postemergence, 31 g ai/ha
  Ryegrass, Italian plant response rating: 0
ryegrass, Italian; Postemergence, 125 g ai/ha
  Ryegrass, Italian plant response rating: 10
ryegrass, Italian; Postemergence, 250 g ai/ha
  Ryegrass, Italian plant response rating: 15
ryegrass, Italian; postemergence, 62 g ai/ha
  Ryegrass, Italian plant response rating: 0
chickweed; Postemergence, 16 g ai/ha
  Plant response rating, Chickweed: 30
chickweed; Postemergence, 31 g ai/ha
  Chickweed plant response rating: 30
chickweed; Postemergence, 125 g ai/ha
  Chickweed plant response rating: 70
chickweed; Postemergence, 250 g ai/ha
  Chickweed plant response rating: 85
chickweed; postemergence, 62 g ai/ha
  Chickweed plant response rating: 70
canarygrass; Postemergence, 16 g ai/ha
  Plant response rating, Canarygrass: 0
canarygrass; Postemergence, 31 g ai/ha
  Canarygrass plant response rating: 0
canarygrass; Postemergence, 125 g ai/ha
  Canarygrass plant response rating: 0
canarygrass; Postemergence, 250 g ai/ha
  Canarygrass plant response rating: 10
canarygrass; postemergence, 62 g ai/ha
  Canarygrass plant response rating: 0
kochia; Postemergence, 16 g ai/ha
  Plant response rating, Kochia: 40
kochia; Postemergence, 31 g ai/ha
  Kochia plant response rating: 85
kochia; Postemergence, 125 g ai/ha
  Kochia plant response rating: 98
kochia; Postemergence, 250 g ai/ha
  Kochia plant response rating: 95
kochia; postemergence, 62 g ai/ha
  Kochia plant response rating: 70
Field poppy; [5]
  Plant response rating (scale 0 to 100), Field Poppy: 20
Field poppy; 31 g ai/ha
  Plant response rating, Field Poppy: 100
Field poppy; 62 g ai/ha
  Plant response rating, Field Poppy: 100
Field poppy; 125 g ai/ha
  Plant response rating, Field Poppy: 90
Field poppy; 250 g ai/ha
  Plant response rating, Field Poppy: 100
deadnettle; Postemergence, 16 g ai/ha
  Plant response rating, Deadnettle: 0
deadnettle; Postemergence, 31 g ai/ha
  Deadnettle plant response rating: 10
deadnettle; Postemergence, 125 g ai/ha
  Deadnettle plant response rating: 30
deadnettle; Postemergence, 250 g ai/ha
  Deadnettle plant response rating: 60
deadnettle; postemergence, 62 g ai/ha
  Deadnettle plant response rating: 10
